In the CheMixHub ionic liquid set:
± gives the uncertainty stated by the source.

Experiment: xn = mol fraction of the nth substance listed
[1] = 333.15 K, 101.3 kPa, x2 = 0.333

SMILES: CCCCn1cc[n+](CCOCCOCCOCC[n+]2ccn(CCCC)c2)c1.N#C[N-]C#N.N#C[N-]C#N + CC[n+]1ccn(C)c1.N#C[N-]C#N + O=S(=O)([N-]S(=O)(=O)C(F)(F)F)C(F)(F)F.[Li+]
- electrical conductivity (298 K, 100 kPa, x1 = 0.2237, x2 = 0.6826): 0.491 ± 0.02 S/m
- electrical conductivity (303 K, 100 kPa, x1 = 0.2237, x2 = 0.6826): 0.589 ± 0.024 S/m
- electrical conductivity (313 K, 100 kPa, x1 = 0.2237, x2 = 0.6826): 0.812 ± 0.032 S/m
- electrical conductivity (323 K, 100 kPa, x1 = 0.2237, x2 = 0.6826): 1.1 ± 0.044 S/m
- electrical conductivity (333 K, 100 kPa, x1 = 0.2237, x2 = 0.6826): 1.42 ± 0.057 S/m
- electrical conductivity (343 K, 100 kPa, x1 = 0.2237, x2 = 0.6826): 1.79 ± 0.071 S/m

SMILES: CCO + O + CCCCCCCCCCCCOS(=O)(=O)[O-].[Na+]
- electrical conductivity (298 K, 100 kPa, frequency 0.001 MHz, x1 = 0.01596, x3 = 0): 0.00025 S/m
- electrical conductivity (298 K, 100 kPa, frequency 0.001 MHz, x1 = 0.02563, x2 = 0.9744): 0.00026 S/m
- electrical conductivity (298 K, 100 kPa, frequency 0.001 MHz, x1 = 0.04623, x2 = 0.9538): 0.00029 S/m
- electrical conductivity (298 K, 100 kPa, frequency 0.001 MHz, x1 = 0.06864, x2 = 0.9314): 0.00031 ± 0.00057 S/m
- electrical conductivity (298 K, 100 kPa, frequency 0.001 MHz, x1 = 0.1203, x2 = 0.8797): 0.00025 S/m
- electrical conductivity (298 K, 100 kPa, frequency 0.001 MHz, x1 = 0.1463, x2 = 0.8537): 0.00025 S/m

SMILES: CCCC[N+](CCCC)(CCCC)CCCC.O=[N+]([O-])[O-] + CCCCCCCCCCCC[N+](C)(C)C.[Br-] + O
- viscosity (293.15 K, 100 kPa, x2 = 5.421e-05, x1 = 0.0001802): 1.042 ± 0.029 mPa·s
- viscosity (293.15 K, 100 kPa, x2 = 0.0001084, x1 = 0.0001801): 1.043 ± 0.029 mPa·s
- viscosity (293.15 K, 100 kPa, x2 = 0.0001626, x1 = 0.0001801): 1.045 ± 0.029 mPa·s
- viscosity (293.15 K, 100 kPa, x2 = 0.0002168, x1 = 0.0001801): 1.047 ± 0.029 mPa·s
- viscosity (293.15 K, 100 kPa, x2 = 0.000271, x1 = 0.0001801): 1.048 ± 0.029 mPa·s
- viscosity (293.15 K, 100 kPa, x2 = 0.0003252, x1 = 0.0001801): 1.048 ± 0.029 mPa·s
- viscosity (293.15 K, 100 kPa, x2 = 0.0003794, x1 = 0.0001801): 1.049 ± 0.029 mPa·s
- viscosity (293.15 K, 100 kPa, x2 = 0.0004335, x1 = 0.0001801): 1.049 ± 0.029 mPa·s
- viscosity (293.15 K, 100 kPa, x2 = 0.0004877, x1 = 0.0001801): 1.049 ± 0.029 mPa·s
- viscosity (293.15 K, 100 kPa, x2 = 0.0005418, x1 = 0.0001801): 1.049 ± 0.029 mPa·s
- viscosity (298.15 K, 100 kPa, x2 = 5.421e-05, x1 = 0.0001802): 0.924 ± 0.029 mPa·s
- viscosity (298.15 K, 100 kPa, x2 = 0.0001084, x1 = 0.0001801): 0.926 ± 0.029 mPa·s
- viscosity (298.15 K, 100 kPa, x2 = 0.0001626, x1 = 0.0001801): 0.927 ± 0.029 mPa·s
- viscosity (298.15 K, 100 kPa, x2 = 0.0002168, x1 = 0.0001801): 0.928 ± 0.029 mPa·s
- viscosity (298.15 K, 100 kPa, x2 = 0.000271, x1 = 0.0001801): 0.928 ± 0.029 mPa·s
- viscosity (298.15 K, 100 kPa, x2 = 0.0003252, x1 = 0.0001801): 0.929 ± 0.029 mPa·s
- viscosity (298.15 K, 100 kPa, x2 = 0.0003794, x1 = 0.0001801): 0.929 ± 0.029 mPa·s
- viscosity (298.15 K, 100 kPa, x2 = 0.0004335, x1 = 0.0001801): 0.929 ± 0.029 mPa·s
- viscosity (298.15 K, 100 kPa, x2 = 0.0004877, x1 = 0.0001801): 0.93 ± 0.029 mPa·s
- viscosity (298.15 K, 100 kPa, x2 = 0.0005418, x1 = 0.0001801): 0.93 ± 0.029 mPa·s
- viscosity (303.15 K, 100 kPa, x2 = 5.421e-05, x1 = 0.0001802): 0.821 ± 0.028 mPa·s
- viscosity (303.15 K, 100 kPa, x2 = 0.0001084, x1 = 0.0001801): 0.822 ± 0.028 mPa·s
- viscosity (303.15 K, 100 kPa, x2 = 0.0001626, x1 = 0.0001801): 0.822 ± 0.028 mPa·s
- viscosity (303.15 K, 100 kPa, x2 = 0.0002168, x1 = 0.0001801): 0.824 ± 0.028 mPa·s
- viscosity (303.15 K, 100 kPa, x2 = 0.000271, x1 = 0.0001801): 0.825 ± 0.028 mPa·s
- viscosity (303.15 K, 100 kPa, x2 = 0.0003252, x1 = 0.0001801): 0.825 ± 0.028 mPa·s
- viscosity (303.15 K, 100 kPa, x2 = 0.0003794, x1 = 0.0001801): 0.825 ± 0.028 mPa·s
- viscosity (303.15 K, 100 kPa, x2 = 0.0004335, x1 = 0.0001801): 0.825 ± 0.028 mPa·s
- viscosity (303.15 K, 100 kPa, x2 = 0.0004877, x1 = 0.0001801): 0.826 ± 0.028 mPa·s
- viscosity (303.15 K, 100 kPa, x2 = 0.0005418, x1 = 0.0001801): 0.826 ± 0.028 mPa·s
- viscosity (308.15 K, 100 kPa, x2 = 5.421e-05, x1 = 0.0001802): 0.731 ± 0.028 mPa·s
- viscosity (308.15 K, 100 kPa, x2 = 0.0001084, x1 = 0.0001801): 0.732 ± 0.028 mPa·s
- viscosity (308.15 K, 100 kPa, x2 = 0.0001626, x1 = 0.0001801): 0.735 ± 0.028 mPa·s
- viscosity (308.15 K, 100 kPa, x2 = 0.0002168, x1 = 0.0001801): 0.735 ± 0.028 mPa·s
- viscosity (308.15 K, 100 kPa, x2 = 0.000271, x1 = 0.0001801): 0.735 ± 0.028 mPa·s
- viscosity (308.15 K, 100 kPa, x2 = 0.0003252, x1 = 0.0001801): 0.736 ± 0.028 mPa·s
- viscosity (308.15 K, 100 kPa, x2 = 0.0003794, x1 = 0.0001801): 0.736 ± 0.028 mPa·s
- viscosity (308.15 K, 100 kPa, x2 = 0.0004335, x1 = 0.0001801): 0.736 ± 0.028 mPa·s
- viscosity (308.15 K, 100 kPa, x2 = 0.0004877, x1 = 0.0001801): 0.737 ± 0.028 mPa·s
- viscosity (308.15 K, 100 kPa, x2 = 0.0005418, x1 = 0.0001801): 0.737 ± 0.028 mPa·s
- viscosity (313.15 K, 100 kPa, x2 = 5.421e-05, x1 = 0.0001802): 0.664 ± 0.028 mPa·s
- viscosity (313.15 K, 100 kPa, x2 = 0.0001084, x1 = 0.0001801): 0.664 ± 0.027 mPa·s
- viscosity (313.15 K, 100 kPa, x2 = 0.0001626, x1 = 0.0001801): 0.665 ± 0.027 mPa·s
- viscosity (313.15 K, 100 kPa, x2 = 0.0002168, x1 = 0.0001801): 0.665 ± 0.027 mPa·s
- viscosity (313.15 K, 100 kPa, x2 = 0.000271, x1 = 0.0001801): 0.665 ± 0.027 mPa·s
- viscosity (313.15 K, 100 kPa, x2 = 0.0003252, x1 = 0.0001801): 0.666 ± 0.027 mPa·s
- viscosity (313.15 K, 100 kPa, x2 = 0.0003794, x1 = 0.0001801): 0.666 ± 0.027 mPa·s
- viscosity (313.15 K, 100 kPa, x2 = 0.0004335, x1 = 0.0001801): 0.666 ± 0.027 mPa·s
- viscosity (313.15 K, 100 kPa, x2 = 0.0004877, x1 = 0.0001801): 0.666 ± 0.027 mPa·s
- viscosity (313.15 K, 100 kPa, x2 = 0.0005418, x1 = 0.0001801): 0.667 ± 0.028 mPa·s
- viscosity (318.15 K, 100 kPa, x2 = 5.421e-05, x1 = 0.0001802): 0.617 ± 0.027 mPa·s
- viscosity (318.15 K, 100 kPa, x2 = 0.0001084, x1 = 0.0001801): 0.617 ± 0.027 mPa·s
- viscosity (318.15 K, 100 kPa, x2 = 0.0001626, x1 = 0.0001801): 0.617 ± 0.027 mPa·s
- viscosity (318.15 K, 100 kPa, x2 = 0.0002168, x1 = 0.0001801): 0.618 ± 0.027 mPa·s
- viscosity (318.15 K, 100 kPa, x2 = 0.000271, x1 = 0.0001801): 0.618 ± 0.027 mPa·s
- viscosity (318.15 K, 100 kPa, x2 = 0.0003252, x1 = 0.0001801): 0.618 ± 0.027 mPa·s
- viscosity (318.15 K, 100 kPa, x2 = 0.0003794, x1 = 0.0001801): 0.618 ± 0.027 mPa·s
- viscosity (318.15 K, 100 kPa, x2 = 0.0004335, x1 = 0.0001801): 0.618 ± 0.027 mPa·s
- viscosity (318.15 K, 100 kPa, x2 = 0.0004877, x1 = 0.0001801): 0.619 ± 0.027 mPa·s
- viscosity (318.15 K, 100 kPa, x2 = 0.0005418, x1 = 0.0001801): 0.619 ± 0.027 mPa·s

SMILES: CCO + COP(=O)([O-])OC.Cn1cc[n+](C)c1
- viscosity (298.15 K, 100 kPa, x2 = 0): 1.08 ± 0.01 mPa·s
- viscosity (308.15 K, 100 kPa, x2 = 0): 0.89 ± 0.01 mPa·s
- viscosity (328.15 K, 100 kPa, x2 = 0): 0.646 ± 0.009 mPa·s

SMILES: Oc1cccc(O)c1O + CCCCCCCCCCCC[N+](C)(C)C.[Br-]
- electrical conductivity (293.15 K, 101.3 kPa, x2 = 0.333): 0.00471 ± 0.00017 S/m
- electrical conductivity (298.15 K, 101.3 kPa, x2 = 0.333): 0.00821 ± 0.00025 S/m
- electrical conductivity [1]: 0.14 ± 0.0031 S/m
- viscosity [1]: 400 ± 23 mPa·s

SMILES: CC[n+]1ccccc1.O=S(=O)([N-]S(=O)(=O)C(F)(F)F)C(F)(F)F + O
- viscosity (298.15 K, 101 kPa, x2 = 0.08693): 34.1 ± 2.1 mPa·s
- viscosity (323.15 K, 101 kPa, x2 = 0.005125): 17.8 ± 1.1 mPa·s
- viscosity (323.15 K, 101 kPa, x2 = 0.08693): 15.47 ± 0.94 mPa·s
- viscosity (343.15 K, 101 kPa, x2 = 0.08693): 9.7 ± 0.59 mPa·s
- viscosity (353.15 K, 101 kPa, x2 = 0.005125): 8.68 ± 0.53 mPa·s

SMILES: CCO + COP(=O)([O-])OC.C[N+]1(CCO)CCCC1
- viscosity (298.15 K, 100 kPa, x2 = 0): 1.08 ± 0.07 mPa·s
